# In PMC11189555, “Aryl amino acetamides prevent Plasmodium falciparum ring development via targeting the lipid-transfer protein PfSTART1” (Nature Communications, 2024):
# Where two headings read alike, the source gives them in different places.
# Assays:
# [1] = test system: 3D7 P. falciparum parasites; assay: Growth inhibition assay (72 h, LDH activity); assay type: cell-based, Plasmodium falciparum; settings: for inhibition at 0.625 µM / inhibition at 1.25 µM / inhibition at 2.5 µM / inhibition at 5 µM / inhibition at 10 µM / EC50 / inhibition at 0.0390625 µM / inhibition at 0.078125 µM / inhibition at 0.15625 µM / inhibition at 0.3125 µM: Plasmodium falciparum; for inhibition at 10 µM: read-out: % Inhibition; for inhibition at 0.0390625 µM: 3D7, M-833 0.0390625 uM; for inhibition at 0.078125 µM: 3D7, M-833 0.078125 uM; for inhibition at 0.15625 µM: 3D7, M-833 0.15625 uM; for inhibition at 0.3125 µM: 3D7, M-833 0.3125 uM
# Experimental: Parasite growth assays with inhibitory compounds were performed as per[11] and are fully described in the Supplementary Information. […]
# Growth inhibition assays. Synchronised ring-stage parasites (0.3-0.6% parasitemia, 2% haematocrit) were grown for 72 h in a serial-dilution of the compound under […]
# and compound 4. Note that M-833 was first purchased from MolPort (MolPort -002-267-916) then made in-house at WEHI: the differences observed in EC50s across experiments are attributed to the different batches of M -833. For some experiments, 0, 0.25 or 2.5 mM of glucosamine (GlcN) was also added. Experiments were set up in technical duplicates or triplicates. Following a freeze -thaw cycle, lactate dehydrogenase (LDH) activity was assessed as an indicator of parasite growt h 5. 30 μL of parasite culture was incubated for 30 min in the dark with 75 μL Malstat mixture (0.1 M Tris pH 9.0, 20 g/L lactic acid, pH 7.5, 0.2% Triton-X100, 0.5 g/L acetylpyridine adenine dinucleotide (APAD, Sigma), 200 μg/mL nitroblue tetrazolium (NBT; Sigma), 1 μg/mL phenozine ethosulfate (PES; Sigma)). Absorbance was then measured at 650 nm, transformed using the formula below, plotted against the logarithm of the concentrations, and a non-linear regression (log(inhibitor) vs. response, variable slope) was calculated using GraphPad Prism to assess the half-inhibitory […]
# Growth inhibition % = (1 − average(sample)− average(uRBC)) ∗ 100 […]
# The DMSO samples were also used to assess growth of parasite in the presence of 0.25 and 2.5 mM GlcN (normalised by DMSO in 0 mM GlcN). […]
# [2] = target: T1, recombinant PfSTART1(WT) (I149-V394) (Plasmodium falciparum, UniProt Q8I298); assay: Isothermal titration calorimetry; assay type: binding; settings: for Differential Power DP_Y / ΔH NDH_Y: PfSTART(WT), ITC replicate data
# T1 construct: START domain alone (I149-V394 from PF3D7_0104200); 8xHis tag (N); TEV protease cleavage site (N); made in house; host or cells: Sf21 insect cells (baculovirus)
# Excerpt: Codon optimised (Spodoptera frugiperda, Sf) START domain alone (I149-V394 from PF3D7_0104200) was synthesised by Integrated DNA Technologies and cloned into a modified baculovirus transfer vector (pAcGP67-A) with a N-terminal GP67-signal sequence, 8xHis tag, and TEV protease cleavage site. Recombinant baculovirus was generated via the flashBACTM Baculovirus Expression System using Sf21 cells (Life Technologies), amplified to reach a third passage viral stock, and 1.5% used to infect Sf21 for protein expression. After incubation for three days at 28 °C, media containing secreted protein was harvested by centrifugation and supplemented with 50 mM Tris pH 7.5, 20 mM MgCl2, 100 mM NaCl, and 10-20 mM imidazole. The supplemented protein sample was purified by nickel affinity chromatography (HisTrap Excel 5 mL, Cytiva), and eluted with 20 mM Tris pH 7.5, 500 mM NaCl, 300-500 mM imidazole. Eluted fractions were further purified using size-exclusion chromatography (Superdex S75 16/600 or Superdex 10/300, Cytiva) with the column pre-equilibrated with 20 mM HEPES pH 7.5, 150 mM NaCl, and peak-containing fractions concentrated and stored at -80 °C until required. If required, prior to ITC, a second size-exclusion chromatography step was performed to remove soluble aggregates.
# ITC experiments were performed on a MicroCal PEAQ-ITC calorimeter at 25 °C, with a stirring speed of 750 rpm and a reference power of 5 μcal/sec. 500 μM M-833 series inhibitor solutions were diluted to 10 μM in 50 mM NaPO4^-3 (pH 7.4), 150 mM NaCl with a final DMSO concentration of 2% (v/v) (cell sample). PfSTART1 protein was dialysed extensively against 50 mM NaPO4^-3 (pH 7.4), 150 mM NaCl, before diluting to 90 μM in the same buffer with 2% (v/v) DMSO (syringe sample). The first injection was 0.4 μL over a 0.8 s duration, and the remaining 19 injections were 2 μL of 4 s duration, with 150 s injection spacing. Data were collected and analysed using the PEAQ-ITC software (MicroCal) and fit by a single site binding model. A fitted offset (constant control heat) was also applied to the integrated heat.
# T1 sequence (Q8I298 entry or part of it): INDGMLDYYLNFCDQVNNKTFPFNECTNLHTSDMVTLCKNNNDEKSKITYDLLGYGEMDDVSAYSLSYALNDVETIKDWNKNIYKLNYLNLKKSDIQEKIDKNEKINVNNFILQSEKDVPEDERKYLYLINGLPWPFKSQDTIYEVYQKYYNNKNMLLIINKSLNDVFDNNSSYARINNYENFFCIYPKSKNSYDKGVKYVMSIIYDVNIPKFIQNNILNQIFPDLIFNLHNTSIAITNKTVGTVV
structure (smiles),measurement,setting,value
Cc1cc(Cl)c(S(=O)(=O)N2CCCC2)cc1OCC(=O)NC1CCCCC1 [M-833],inhibition at 0.625 µM,"[1]; 3D7, 3D7 replicate 1, M-833 0.625 uM",84.4%
same,inhibition at 1.25 µM,"[1]; 3D7, 3D7 replicate 1, M-833 1.25 uM",93.1%
same,inhibition at 2.5 µM,"[1]; 3D7, 3D7 replicate 1, M-833 2.5 uM",95.8%
same,inhibition at 5 µM,"[1]; 3D7, 3D7 replicate 1, M-833 5 uM",95.5%
same,inhibition at 10 µM,"[1]; 3D7, 3D7 replicate 1, M-833 10 uM",97.3%
same,EC50,"[1]; 3D7, 72 h, Fig 2B, 3D7, 72 h, n = 3, unit only in x-axis title, read-out: EC50 (95% confidence interval)",97.6 nM
same,EC50,"[1]; 3D7, 72 h, Fig 2D, 3D7, 72 h, n = 3, read-out: EC50 (95% confidence interval)",49.7 nM
same,EC50,"[1]; 3D7, 72 h, Supplementary Table 1, 3D7, 72 h, read-out: EC50",156 nM
same,EC50,"[1]; 3D7, Fig 1B, 3D7, 10 µM to 0.04 µM M-833, n = 3, unit only on x-axis label, read-out: EC50 (95% confidence interval)",170 nM
same,EC50,"[1]; 3D7, Fig 3C, 3D7, 0 mM GlcN, n = 4, unit on plot axis, read-out: EC50 M-833 (95% confidence interval)",157 nM
same,EC50,"[1]; 3D7, Fig 3C, 3D7, 0.25 mM GlcN, n = 4, unit on plot axis, read-out: EC50 M-833 (95% confidence interval)",158 nM
same,EC50,"[1]; 3D7, Fig 3C, 3D7, 2.5 mM GlcN, n = 4, unit on plot axis, read-out: EC50 M-833 (95% confidence interval)",118 nM
same,EC50,"[1]; 3D7, Fig 3F, 3D7, 0.25 mM GlcN, n = 3, read-out: EC50 M-833 (95% confidence interval)",54.8 nM
same,EC50,"[1]; 3D7, Fig 3F, 3D7, 2.5 mM GlcN, n = 3, read-out: EC50 M-833 (95% confidence interval)",37.3 nM
same,EC50,"[1]; 3D7, Fig 4A, 3D7 parasites, read-out: Pf 3D7 EC50 (SD)",1100 nM
same,inhibition at 0.0390625 µM,[1]; 3D7 replicate 1,1.91%
same,inhibition at 0.0390625 µM,[1]; 3D7 replicate 3,-5.13%
same,inhibition at 0.078125 µM,[1]; 3D7 replicate 1,30.8%
same,inhibition at 0.078125 µM,[1]; 3D7 replicate 3,-1.15%
same,inhibition at 0.15625 µM,[1]; 3D7 replicate 1,57.1%
same,inhibition at 0.15625 µM,[1]; 3D7 replicate 3,12.4%
same,inhibition at 0.3125 µM,[1]; 3D7 replicate 1,82.6%
same,inhibition at 0.3125 µM,[1]; 3D7 replicate 3,44.5%
same,inhibition at 0.625 µM,"[1]; 3D7, M-833 0.625 uM, 3D7 replicate 1",87.3%
same,inhibition at 0.625 µM,"[1]; 3D7, M-833 0.625 uM, 3D7 replicate 3",64.5%
same,inhibition at 1.25 µM,"[1]; 3D7, M-833 1.25 uM, 3D7 replicate 1",91%
same,inhibition at 1.25 µM,"[1]; 3D7, M-833 1.25 uM, 3D7 replicate 3",73.5%
same,inhibition at 2.5 µM,"[1]; 3D7, M-833 2.5 uM, 3D7 replicate 1",91.8%
same,inhibition at 2.5 µM,"[1]; 3D7, M-833 2.5 uM, 3D7 replicate 3",77.3%
same,inhibition at 5 µM,"[1]; 3D7, M-833 5 uM, 3D7 replicate 1",91.3%
same,inhibition at 5 µM,"[1]; 3D7, M-833 5 uM, 3D7 replicate 3",83.4%
same,inhibition at 10 µM,"[1]; 3D7, M-833 10 uM, 3D7 replicate 1",91.1%
same,inhibition at 10 µM,"[1]; 3D7, M-833 10 uM, 3D7 replicate 3",78%
same,effect of GlcN addition on EC50,[1]; control 3D7,did not change the EC50
same,Kd,"[2]; ITC, 25 °C, 90 µM PfSTART1 titrated into 10 µM compound, n = 2, ± SD",42 ± 12 nM
same,ΔH,"[2]; ITC, 25 °C, n = 2, ± SD",-7.6 ± 0.2 kcal/mol
same,−TΔS,"[2]; ITC, 25 °C, n = 2, ± SD",-2.5 ± 0.4 kcal/mol
same,Differential Power DP_Y,[2]; DP_X 0.083333,-0.001604
same,Differential Power DP_Y,[2]; DP_X 0.1,-0.001099
same,ΔH NDH_Y,[2]; NDH_X 0.104703,-8.4
same,ΔH NDH_Y,[2]; NDH_X 0.192876,-6.335
